Where a name gives a salt, the structure may show the parent alone. Read-outs that look alike come from different tables or passages of the source.
How the values were obtained:
SCC-111 cells [1] = settings: for DCF-value: after repeating the experiments several times
SCC-111 cells [2] = assay: cells; settings: Homo sapiens, read-out: in vitro IC50-value (in SCC-111 cells)
[3] = system: proliferating and non-proliferating cells; assay: Comparative test of cell density as a function of time (normal and high cell density); type: cell-based
[4] = Dermal absorption study with human skin (Franz diffusion cells, 3H-API); settings: different concentrations and formulations (cream, liposomes, hydro-tops)
[5] = system: human skin (Leiden epidermal skin); assay: Methylthiazol Tetrazolium-Assay (MTT) skin irritation, in vitro human skin model; type: cell-based; settings: doses of 100-times the in vitro IC50-values; irritant = metabolic activity of skin model reduced to ≦50%
Description: This leads to the option to apply the vinca-compositions not only to single affected skin lesions (“spots”) but also to larger areas of the skin, e.g. for “field treatment”, and often even >5% (or >10%) of the skin surface (of the individual).

Stability at pH 5.5 = type: physicochemical
Method: Some topical formulations may have a reduced stability at a temperature of 37° C. and a pH-value of 7 or more, e.g. a pH-value of 7.4.

Solubility = settings: pH 6.5
[6] = IC50 in 0% FBS divided by IC50 in 20% FBS, SCC-111 cells
[7] = read-out: in vitro IC50-value (in SCC-111 cells), SCC-111 cells, serum condition not stated

| Molecule | IC50 (SCC-111 cells [2]) | dermal absorption (in words) [4] | stability (compound remaining) (Stability at pH 5.5; buffer, 168 h, pH 5.5) | DCF-value (SCC-111 cells [1]; [6]) | skin irritation rating in MTT assay [5] | other results |
| --- | --- | --- | --- | --- | --- | --- |
| COc1cccc2c1C(=O)c1c(O)c3c(c(O)c1C2=O)C[C@@](O)(C(=O)CO)C[C@@H]3O[C@H]1C[C@H](N)[C@@H](O)[C@H](C)O1 [Epirubicin, Epirubicin HCL] |  |  |  | 6.05 |  |  |
| COc1cc([C@@H]2c3cc4c(cc3[C@@H](O[C@@H]3O[C@@H]5CO[C@@H](c6cccs6)O[C@H]5[C@H](O)[C@H]3O)[C@H]3COC(=O)[C@H]23)OCO4)cc(OC)c1O [Teniposide] |  |  |  | 5.76 |  |  |
| Vinblastine sulfate hydrate |  |  |  | 19.87 | not rated as irritant | solubility (Solubility): 0.25%; IC50 (SCC-111 cells [1]; [7]): 0.87 nM; stability (compound remaining) (Stability at pH 5.5; pH 5.5, test for 7 days, 5° C.): 97% |

Further lines, with some results ahead:

| IC50 (SCC-111 cells [2]) | dermal absorption (in words) [4] | stability (compound remaining) (Stability at pH 5.5; buffer, 168 h, pH 5.5) | Molecule | DCF-value (SCC-111 cells [1]; [6]) | skin irritation rating in MTT assay [5] | other results |
| --- | --- | --- | --- | --- | --- | --- |
| 960 nM |  |  | O=c1[nH]cc(F)c(=O)[nH]1 [Example 5-FU, 5-Fluorouracil] | 0.73 |  | effect on number of cells at normal (proliferating) and high (non-proliferating) cell density [3]: cells were affected, independent of their proliferation-status |
| 0.92 nM | good dermal absorption | 99.6% | CC[C@]1(O)C[C@H]2CN(CCc3c([nH]c4ccccc34)[C@@](C(=O)OC)(c3cc4c(cc3OC)N(C=O)[C@H]3[C@@](O)(C(=O)OC)[C@H](OC(C)=O)[C@]5(CC)C=CCN6CC[C@]43[C@@H]65)C2)C1 [Vincristine, Vincristine sulfate] | 5.86 | not rated as irritant | solubility in water (pH 5.5): 0.57 % by weight |
|  | good dermal absorption | 98.8% | CC[C@]1(O)C[C@@H]2CN(CCc3c([nH]c4ccccc34)[C@@](C(=O)OC)(c3cc4c(cc3OC)N(C)[C@H]3[C@@](O)(C(N)=O)[C@H](O)[C@]5(CC)C=CCN6CC[C@]43[C@@H]65)C2)C1 [Vindesine, Vindesine sulfate hydrate] | 11.43 | not rated as irritant | DCF-value (differential cytotoxicity factor) from FIGS. 1 and 2 (SCC-111 cells [1]; IC50 in 0% FBS divided by IC50 in 20% FBS, single example experiment): > 10; IC50 (SCC-111 cells [1]; read-out: IC50-value, 0% FBS medium cultivated cells (FIG. 2), SCC-111, 0% FBS (low proliferation), DNA-content, 72 hours): 3.5 nM; IC50 (SCC-111 cells [1]; read-out: IC50-value, 20% FBS medium cultivated cells (FIG. 1), SCC-111, 20% FBS (high proliferation), DNA-content, 72 hours): 0.34 nM; IC50 (SCC-111 cells [1]; [7]): 0.57 nM |
| 1.34 nM | good dermal absorption | 99.5% | CCC1=C[C@@H]2CN(C1)Cc1c([nH]c3ccccc13)[C@@](C(=O)OC)(c1cc3c(cc1OC)N(C)[C@H]1[C@@](O)(C(=O)OC)[C@H](OC(C)=O)[C@]4(CC)C=CCN5CC[C@]31[C@@H]54)C2 [Vinorelbine] | 6.42 | not rated as irritant | solubility (pH 6.5): 0.7% |
